US9340559B2, “Proteasome inhibitor delanzomib for use in the treatment of lupus” (Cephalon, Inc., priority 2011, dated 2016)

Assays:
[1] = test system: NZM mice; assay: Body weight progression, NZM mice (Example 2); type: in vivo, mouse; settings: G6 50 mg/kg ip, 1× wk
[2] = test system: NZM mice; assay: Serum C3 complement ELISA, NZM mice (Example 2)
[3] = test system: NZM mice; assay: Renal histopathology scoring (kidney IC-GN), NZM mice (Example 2); type: in vivo, mouse
Procedure: For histological analyses, the left kidney from each animal is removed and fixed in 10% buffered neutral formalin (EMD) for 48 hours on an orbital rocker at 25° C., then washed overnight with running dH2O and stored in 70% ethanol at 4° C. until ready to be processed. Kidney stains used for histological analyses included hematoxylin and eosin (H&E), Periodic Acid Schiff (PAS) and Trichrome stains (Wistar Institute, Philadelphia, Pa.). All 3 stained sections are used by the pathologist for scoring purposes. All histological scoring is performed blinded and by an independent board certified veterinary medical pathologist (Julie Engiles, VMD, DACVP). Multiple stains are used to determine score values. Images in FIG. 39 show worst affected area of section selected blindly by the pathologist.
Kidney IC-GN Scoring Method (Smith, Dong et al. 2007):
1. Glomerular cellularity—Score 1-5: Null, low, moderate, high, severe
2. Glomerular necrosis—Score 1-5: Null, low, moderate, high, severe
3. Glomerulosclerosis—Score 1-5: Null, low, moderate, high, severe
4. Interstitial infiltration—Score 1-5: Null, low, moderate, high, severe
5. Tubular atrophy—Score 1-5: Null, low, moderate, high, severe
6. Interstitial fibrosis—Score 1-5: Null, low, moderate, high, severe
7. Vasculitis—Score 1-5: Null, low, moderate, high, severe
Specific Pathologist Definitions: • Necrosis is defined by the presence of nuclear debris/pyknosis within the glomerular tuft indicative of “necrosis.” In many samples, this is a very mild, rare finding within only a very few segments of the glomerular tuft. Also consider effacement of the glomerular tuft by PAS positive, Trichrome negative material necrosis. • Glomerular sclerosis is defined by increased fibroplasia or fibrosis within the glomerular tuft or capsule. […] Most of the vascular changes are mild and could be considered “arteriosclerosis” characterized by proliferation of the smooth muscle cells, and hyalinization of the extracellular matrix. This change may reflect hypertension secondary to glomerular pathology. In very few animals is there overt “vasculitis.” Most inflammatory changes are within the walls of the blood vessels, with little to no damage to the endothelium, and no overt hemorrhage/fibrin leakage. Many also have perivascular rims of fibroblasts.

[4] = test system: NZM mice; assay: Survival, NZM lupus nephritis model, ip dosing (Example 2); type: in vivo, mouse; settings: G6 50 mg/kg ip, 1× wk
[5] = test system: NZM mice; assay: Antinuclear antibody (ANA) ELISA (anti-chromatin, anti-Smith Ag, anti-dsDNA), serum of NZM mice (Example 2); type: in vivo, mouse
[6] = test system: NZM mice; type: in vivo, mouse
[7] = test system: NZM mice; assay: Antibody secreting B-cell Elispot (anti-chromatin, total IgG ASC), spleens of NZM mice (Example 2); type: in vivo, mouse
Procedure: (§1) FIG. 34 depicts the frequency of anti-chromatin antibody secreting cells in the spleens of NZM mice. NZM treated mice spleens were processed for splenocytes for ex vivo Elispot assays. Elispot wells were coated with 10 μg/mL of boiled chicken chromatin or ovalbumin protein. Fresh, whole splenocytes were added to each well at 50,000 cells per well in cell culture medium. Cells were incubated overnight at 37° C. Developed wells provided spots that were counted as frequency of ASCs per million splenocytes.
as §1, with “35” for “34”, “total IgG” for “anti-chromatin”, “anti-mouse IgG, IgH, and IgL chains.” for “boiled chicken chromatin or ovalbumin protein.”
B-cell Elispot components are ordered from MabTech (Nacka Strand, Sweden) and nitrocellulose IP filter plates are ordered from Millipore (Billerica, Mass.). Elispot wells are coated with either purified bovine thymus dsDNA (Sigma), purified bovine Smith antigen (GenWay) or boiled filtered purified chicken chromatin from lysed chicken red blood cells (Rockland, Gilbertsville, Pa.) at 10 μg/mL. Spleens are processed using glass homogenization (frosted slides). Dispersed cell contents are washed in sterile HBSS and RBCs lysed using 1×RBC lysis buffer (BioLegend, Cat #420301). Processed splenocytes are added to each well and are not stimulated with lipopolysaccharide (LPS) to avoid skewing of true ex vivo frequencies of antibody-secreting cell types (ASCs). Anti-mouse pan-IgG is used as a positive control for total IgG producing ASCs and is used to normalize results. Frequencies for each antigen are identified in an initial test phase for each model. For chromatin and total IgG only, 30,000 splenocytes are added to each well; for Smith antigen and dsDNA, 500,000 cells are added to each well. Different numbers of splenocytes are added for different antigens due to saturation limits of spot frequencies per well. B-cell Elispots are incubated overnight at 37° C. To develop each assay, secondary antibody is added to each well, incubated, washed and alkaline phosphatase strepavidin (Jackson ImmunoResearch, West Grove, Pa.) is used as the conjugate; substrate used is BCIP-NBT (MabTech, Cincinnati, Ohio). Plates are developed until spots are visible. All Elispot analyses are performed using an Immunospot C.T.L. scanner and Biospot software (Cellular Technology Ltd., Shaker Heights, Ohio). Results are shown as values from which media and cells only wells are subtracted. Some values are negative due to high background.

[8] = test system: NZM mice; assay: Collagen type-I cross-linker (CTx) bone resorption biomarker ELISA, serum of NZM mice; type: in vivo, mouse; settings: G6 50 mg/kg ip, 1× wk
Procedure: Assay is performed as instructed by the manufacturer. Briefly, biotinylated ratlaps antigen is first added in each well of a 96-well ELISA plate. This plate is covered and incubated for 30 minutes at RT. Plate is washed five times with washing solution and incubated with standards or unknown samples in appropriate wells followed by primary Ab. Incubate overnight for 18 hours at 4° C. followed by washing with buffer. Secondary incubation includes a peroxidase conjugated goat anti-rabbit IgG added to each well and incubation at RT for 1 hour. Incubation with chromogenic substrate solution for 15 minutes at RT in the dark develops the plate for analysis. Stopping solution halts the reaction, absorbance is measured within 2 hours at 450 nm.

[9] = test system: NZM mice; assay: Splenomegaly (spleen mass), NZM mice (Example 2); type: in vivo, mouse
[10] = test system: NZM mice; assay: Urinalysis: total urine protein (proteinuria), NZM mice (Example 2); type: in vivo, mouse; settings: G6 50 mg/kg ip, 1× wk

O=P1(N(CCCl)CCCl)NCCCO1 (centres unmarked) [CTX, Cyclophosphamide]
Body mass AUC, percent change vs vehicle [1]: +4% | Serum C3 complement AUC, percent change vs vehicle ([2]; G6 50 mg/kg ip, 1× wk): −18% | p, serum C3 complement levels vs G8 Dex 1.5 mg/kg 3× wk ip ([2]; G7 50 mg/kg 1× wk ip): p < 0.01 | p, glomerular cellularity (GC) vs G7 Vehicle ([3]; G5 50 mg/kg 1× wk): p < 0.05 | Kidney glomerular cellularity, percent change vs vehicle ([3]; G6 50 mg/kg ip, 1× wk): −7% | Kidney glomerular necrosis, percent change vs vehicle ([3]; G6 50 mg/kg ip, 1× wk): 42% | Kidney glomerulosclerosis, percent change vs vehicle ([3]; G6 50 mg/kg ip, 1× wk): 34% | Kidney interstitial fibrosis, percent change vs vehicle ([3]; G6 50 mg/kg ip, 1× wk): 11% | Kidney interstitial infiltration, percent change vs vehicle ([3]; G6 50 mg/kg ip, 1× wk): 11% | Kidney tubular atrophy, percent change vs vehicle ([3]; G6 50 mg/kg ip, 1× wk): 18% | Kidney vasculitis, percent change vs vehicle ([3]; G6 50 mg/kg ip, 1× wk): 9% | EOS survival, percent live mice from original number [4]: 70% | ANA Smith Ag AUC, percent change vs vehicle ([5]; G6 50 mg/kg ip, 1× wk): −86% | ANA chromatin AUC, percent change vs vehicle ([5]; G6 50 mg/kg ip, 1× wk): −51% | ANA dsDNA AUC, percent change vs vehicle ([5]; G6 50 mg/kg ip, 1× wk): −66% | reduction in anti-chromatin Ab relative to vehicle, significance ([5]; bortezomib, Dex or CTX treatment groups): none of which was significant | Cytokine IL-12 AUC, percent change vs vehicle ([6]; G6 50 mg/kg ip, 1× wk): −78% | Cytokine IL-13 AUC, percent change vs vehicle ([6]; G6 50 mg/kg ip, 1× wk): 486% | Cytokine IL-17A AUC, percent change vs vehicle ([6]; G6 50 mg/kg ip, 1× wk): 508% | Cytokine IP-10 AUC, percent change vs vehicle ([6]; G6 50 mg/kg ip, 1× wk): 338% | Cytokine MIG AUC, percent change vs vehicle ([6]; G6 50 mg/kg ip, 1× wk): 359% | Cytokine TNFα AUC, percent change vs vehicle ([6]; G6 50 mg/kg ip, 1× wk): −25% | p, serum IL-12p40/p70 concentration vs G5 Bortezomib 0.3 mg/kg 1× wk ip ([6]; G7 50 mg/kg 1× wk ip): NS (NS = not significant (p > 0.05)) | p, serum IL-12p40/p70 concentration vs G6 Bortezomib 0.3 mg/kg 2× wk ip ([6]; G7 50 mg/kg 1× wk ip): NS (NS = not significant (p > 0.05)) | p, serum IL-12p40/p70 concentration vs G8 Dex 1.5 mg/kg 3× wk ip ([6]; G7 50 mg/kg 1× wk ip): NS (NS = not significant (p > 0.05)) | p, serum IL-12p40/p70 concentration vs G9 Vehicle 1× wk ip ([6]; G7 50 mg/kg 1× wk ip): p < 0.001 | p, serum IL-13 concentration vs G5 Bortezomib 0.3 mg/kg 1× wk ip ([6]; G7 50 mg/kg 1× wk ip): p < 0.001 | p, serum IL-13 concentration vs G6 Bortezomib 0.3 mg/kg 2× wk ip ([6]; G7 50 mg/kg 1× wk ip): p < 0.001 | p, serum IL-13 concentration vs G8 Dex 1.5 mg/kg 3× wk ip ([6]; G7 50 mg/kg 1× wk ip): p < 0.001 | p, serum IL-13 concentration vs G9 Vehicle 1× wk ip ([6]; G7 50 mg/kg 1× wk ip): p < 0.001 | p, serum IL-17A concentration vs G5 Bortezomib 0.3 mg/kg 1× wk ip ([6]; G7 50 mg/kg 1× wk ip): NS (NS = not significant (p > 0.05)) | p, serum IL-17A concentration vs G6 Bortezomib 0.3 mg/kg 2× wk ip ([6]; G7 50 mg/kg 1× wk ip): p < 0.001 | p, serum IL-17A concentration vs G8 Dex 1.5 mg/kg 3× wk ip ([6]; G7 50 mg/kg 1× wk ip): p < 0.001 | p, serum IL-17A concentration vs G9 Vehicle 1× wk ip ([6]; G7 50 mg/kg 1× wk ip): p < 0.001 | p, serum IP-10 concentration vs G5 Bortezomib 0.3 mg/kg 1× wk ip ([6]; G7 50 mg/kg 1× wk ip): P < 0.001 | p, serum IP-10 concentration vs G6 Bortezomib 0.3 mg/kg 2× wk ip ([6]; G7 50 mg/kg 1× wk ip): p < 0.001 | p, serum IP-10 concentration vs G8 Dex 1.5 mg/kg 3× wk ip ([6]; G7 50 mg/kg 1× wk ip): P < 0.001 | p, serum IP-10 concentration vs G9 Vehicle 1× wk ip ([6]; G7 50 mg/kg 1× wk ip): p < 0.001 | p, serum MIG concentration vs G5 Bortezomib 0.3 mg/kg 1× wk ip ([6]; G7 50 mg/kg 1× wk ip): p < 0.001 | p, serum MIG concentration vs G6 Bortezomib 0.3 mg/kg 2× wk ip ([6]; G7 50 mg/kg 1× wk ip): p < 0.001 | p, serum MIG concentration vs G8 Dex 1.5 mg/kg 3× wk ip ([6]; G7 50 mg/kg 1× wk ip): p < 0.001 | p, serum MIG concentration vs G9 Vehicle 1× wk ip ([6]; G7 50 mg/kg 1× wk ip): p < 0.001 | p, serum TNFα concentration vs G5 Bortezomib 0.3 mg/kg 1× wk ip ([6]; G7 50 mg/kg 1× wk ip): NS (NS = not significant (p > 0.05)) | p, serum TNFα concentration vs G6 Bortezomib 0.3 mg/kg 2× wk ip ([6]; G7 50 mg/kg 1× wk ip): NS (NS = not significant (p > 0.05)) | p, serum TNFα concentration vs G8 Dex 1.5 mg/kg 3× wk ip ([6]; G7 50 mg/kg 1× wk ip): p <0.05 | p, serum TNFα concentration vs G9 Vehicle 1× wk ip ([6]; G7 50 mg/kg 1× wk ip): NS (NS = not significant (p > 0.05)) | ASC chromatin EOS, percent change vs vehicle ([7]; G6 50 mg/kg ip, 1× wk): −100% | ASC total IgG EOS, percent change vs vehicle ([7]; G6 50 mg/kg ip, 1× wk): −93% | p, frequency of anti-chromatin antibody secreting cells in spleen vs G5 Bortezomib 0.3 mg/kg 1× wk ip ([7]; G7 50 mg/kg 1× wk ip): P < 0.05 | p, frequency of anti-chromatin antibody secreting cells in spleen vs G6 Bortezomib 0.3 mg/kg 2× wk ip ([7]; G7 50 mg/kg 1× wk ip): p < 0.05 | p, frequency of anti-chromatin antibody secreting cells in spleen vs G9 Vehicle 1× wk ip ([7]; G7 50 mg/kg 1× wk ip): p < 0.01 | p, frequency of total IgG antibody secreting cells in spleen vs G5 Bortezomib 0.3 mg/kg 1× wk ip ([7]; G7 50 mg/kg 1× wk ip): p < 0.001 | p, frequency of total IgG antibody secreting cells in spleen vs G6 Bortezomib 0.3 mg/kg 2× wk ip ([7]; G7 50 mg/kg 1× wk ip): p < 0.001 | p, frequency of total IgG antibody secreting cells in spleen vs G8 Dex 1.5 mg/kg 3× wk ip ([7]; G7 50 mg/kg 1× wk ip): P < 0.01 | p, frequency of total IgG antibody secreting cells in spleen vs G9 Vehicle 1× wk ip ([7]; G7 50 mg/kg 1× wk ip): p < 0.01 | Serum CTx linker AUC, percent change vs vehicle [8]: −26% | Spleen mass EOS, percent change vs vehicle ([9]; G6 50 mg/kg ip, 1× wk): −42% | spleen mass compared to once-a-week bortezomib ([9]; p<0.05): reduced spleen mass significantly | Urine proteinuria AUC, percent change vs vehicle [10]: −68%
